These results are taken from patent US10730889B2, “Amido spirocyclic amide and sulfonamide derivatives” (Forma TM, LLC, priority 2012, dated 2020).

The first test concerns A2780 cells. Put plainly: In-vitro cell proliferation assay (SRB, 72 hours). Conditions: A2780 cells, 72 hours, SRB; read-out: Cell Proliferation (IC50). It is filed as cell-based.
On to `Cc1nn(C)c(C)c1C(=O)N1CCC2(CC1)CC2CNC(=O)c1cc2ccncc2o1` (single isomer, unassigned) [Example 301, N-[[6-(1,3,5-trimethylpyrazole-4-carbonyl)-6-azaspiro[2.5]octan-2-yl]methyl]furo[2,3-c]pyridine-2-carboxamide], for which the IC50 came out at 4.21 nM.

Take `Cc1nn(C)c(C)c1C(=O)N1CCC2(CC1)CC2CNC(=O)c1cc2ccncc2o1` (single isomer, unassigned) [Example 300, N-[[6-(1,3,5-trimethylpyrazole-4-carbonyl)-6-azaspiro[2.5]octan-2-yl]methyl]furo[2,3-c]pyridine-2-carboxamide]: the IC50 was 335 nM.

As for “N-[[6-(2,2- dimethylcyclopropanecarbonyl)- 6-azaspiro[2.5]octan-2- yl]methyl]furo[2,3-c]pyndine-2- carboxamide [Example 373]”, the IC50 is 7.03 nM.

Staying with this test, now noted: Homo sapiens, A2780, 72 h, A2780 cells, 72 hours, SRB; read-out: Cell Proliferation (IC50).
With `O=C(NCC1CC12CCN(C(=O)Nc1ccccc1)CC2)c1cc2ccncc2o1` (stereo not shown) [Example 187, N-[[6-(phenylcarbamoyl)-6-azaspiro[2.5]octan-2-yl]methyl]furo[2,3-c]pyridine-2-carboxamide], the IC50 was determined as 2460 nM.

For `O=C(NCC1CC12CCN(C(=O)c1ccncc1)CC2)c1cc2ccncc2o1` (stereo not shown) [Example 97, N-[[6-(pyridine-4-carbonyl)-6-azaspiro[2.5]octan-2-yl]methyl]furo[2,3-c]pyridine-2-carboxamide], the IC50 was determined as 2000 nM.

Consider `N#Cc1ccc(NC(=O)N2CCC3(CC2)CC3CNC(=O)c2cc3ccncc3o2)cc1` (stereo not shown) [Example 157, N-[[6-[(4-cyanophenyl)carbamoyl]-6-azaspiro[2.5]octan-2-yl)methyl]furo[2,3-c]pyridine-2-carboxamide], for which the IC50 was 2000 nM.

As to `CCNC(=O)N1CCC2(CC1)CC2CNC(=O)c1cc2ccncc2o1` (stereo not shown) [Example 172, N-[[6-(ethylcarbamoyl)-6-azaspiro[2.5]octan-2-yl)methyl]furo[2,3-c]pyridine-2-carboxamide], the IC50 stood at 2000 nM.

In the case of `O=C(NCC1CC12CCN(C(=O)C1CCN(c3cccnn3)C1)CC2)c1cc2ccncc2o1` (stereo not shown) [Example 146, N-[[6-(1-pyridazin-3-ylpyrrolidine-3-carbonyl)-6-azaspiro[2.5]octan-2-yl)methyl]furo[2,3-c]pyridine-2-carboxamide], the IC50 is 74.5 nM.

With `Nc1ccc(CC(=O)N2CCC3(CC2)CC3CNC(=O)N2Cc3ccncc3C2)cn1` (stereo not shown) [Example 394, N-[[6-[2-(6-Amino-3-pyridyl)acetyl]-6-azaspiro[2.5]octan-2-yl]methyl]-1,3-dihydropyrrolo[3,4-c]pyridine-2-carboxamide], the IC50 came out at 14.5 nM.

Take `O=C(NCC1CC12CCN(C(=O)c1ccncn1)CC2)c1cc2ccncc2o1` (stereo not shown) [Example 102, N-[[6-(pyrimidine-4-carbonyl)-6-azaspiro[2.5]octan-2-yl]methyl]furo[2,3-c]pyridine-2-carboxamide]: the IC50 came out at 2000 nM.

With `Cc1ncoc1C(=O)N1CCC2(CC1)CC2CNC(=O)c1cc2ccncc2o1` (stereo not shown) [Example 331, N-[[6-(4-methyloxazole-5-carbonyl)-6-azaspiro[2.5]octan-2-yl]methyl]furo[2,3-c]pyridine-2-carboxamide], the IC50 worked out at 7.04 nM.

Take `CC1(C)CC1C(=O)N1CCC2(CC1)CC2CNC(=O)c1cc2ccncc2o1` (stereo not shown) [Example 371, N-[[6-(2,2-dimethylcyclopropanecarbonyl)-6-azaspiro[2.5]octan-2-yl]methyl]furo[2,3-c]pyridine-2-carboxamide]: the IC50 was found to be 30.2 nM.

On to `O=C(NCC1CC12CCN(C(=O)c1cccnc1)CC2)c1cc2ccncc2o1` (stereo not shown) [Example 103, N-[[6-(pyridine-3-carbonyl)-6-azaspiro[2.5]octan-2-yl]methyl]furo[2,3-c]pyridine-2-carboxamide], for which the IC50 worked out at 2000 nM.

With `Cc1ncoc1C(=O)N1CCC2(CC1)CC2CNC(=O)N1Cc2ccncc2C1` (stereo not shown) [Example 415, N-[[6-(4-methyloxazole-5-carbonyl)-6-azaspiro[2.5]octan-2-yl]methyl]-1,3-dihydropyrrolo[3,4-c]pyridine-2-carboxamide], the IC50 is 14.2 nM.

For the compound `Cc1nn(-c2ccc(F)cc2)c(C)c1C(=O)N1CCC2(CC1)CC2CNC(=O)c1cc2ccncc2o1` (stereo not shown) [Example 223, N-[[6-[1-(4-fluorophenyl)-3,5-dimethyl-pyrazole-4-carbonyl]-6-azaspiro[2.5]octan-2-yl]methyl]furo[2,3-c]pyridine-2-carboxamide], the IC50 was found to be 1.92 nM.

In the case of `O=C(NCC1CC12CCN(C(=O)c1cnc3[nH]cnc3c1)CC2)c1cc2ccncc2o1` (stereo not shown) [Example 340, N-[[6-(3H-imidazo[4,5-b]pyridine-6-carbonyl)-6-azaspiro[2.5]octan-2-yl]methyl]furo[2,3-c]pyridine-2-carboxamide], the IC50 was 429 nM.

On to `Cn1cc(-c2ccno2)c(C(=O)N2CCC3(CC2)CC3CNC(=O)c2cc3cnccc3[nH]2)n1` (stereo not shown) [Example 369, N-[[6-(4-isoxazol-5-yl-1-methyl-pyrazole-3-carbonyl)-6-azaspiro[2.5]octan-2-yl]methyl]-1H-pyrrolo[3,2-c]pyridine-2-carboxamide], for which the IC50 is 93.3 nM.

For the compound `O=C(NCC1CC12CCN(C(=O)C1CCS(=O)(=O)C1)CC2)c1cc2ccncc2o1` (stereo not shown) [Example 66, N-[[6-(1,1-dioxothiolane-3-carbonyl)-6-azaspiro[2.5]octan-2-yl]methyl]furo[2,3-c]pyridine-2-carboxamide], the IC50 is 2000 nM.

For `CC1(O)CC(CC(=O)N2CCC3(CC2)CC3CNC(=O)c2cc3cnccc3[nH]2)C1` (stereo not shown) [Example 400, N-[[6-[2-(3-hydroxy-3-methyl-cyclobutyl)acetyl]-6-azaspiro[2.5]octan-2-yl]methyl]-1H-pyrrolo[3,2-c]pyridine-2-carboxamide], the IC50 turned out to be 222 nM.

For `O=C(NCC1CC12CCN(C(=O)c1c[nH]nc1C1CC1)CC2)c1cc2ccncc2o1` (stereo not shown) [Example 332, N-[[6-(3-cyclopropyl-1H-pyrazole-4-carbonyl)-6-azaspiro[2.5]oetan-2-yl]methyl]furo[2,3-c]pyridine-2-carboxamide], the IC50 was found to be 33.8 nM.

As for `O=C(NCC1CC12CCN(C(=O)c1ccc3cnccc3n1)CC2)c1cc2ccncc2o1` (stereo not shown) [Example 262, N-[[6-(1,6-naphthyridine-2-carbonyl)-6-azaspiro[2.5]octan-2-yl]methyl]furo[2,3-c]pyridine-2-carboxamide], the IC50 came to 79.5 nM.

Consider `Cc1cnccc1C(=O)N1CCC2(CC1)CC2CNC(=O)c1cc2ccncc2o1` (stereo not shown) [Example 232, N-[[6-(3-methylpyridine-4-carbonyl)-6-azaspiro[2.5]octan-2-yl]methyl]furo[2,3-c]pyridine-2-carboxamide], for which the IC50 turned out to be 207 nM.

Consider `O=C(NCC1CC12CCN(C(=O)c1cc3cccn3cn1)CC2)c1cc2ccncc2o1` (stereo not shown) [Example 237, N-[[6-(pyrrolo[1,2-c]pyrimidine-3-carbonyl)-6-azaspiro[2.5]octan-2-yl]methyl]furo[2,3-c]pyridine-2-carboxamide], for which the IC50 was determined as 166 nM.

In the case of `O=C(NCC1CC12CCN(C(=O)Nc1ccccc1)CC2)N1Cc2ccncc2C1` (stereo not shown) [Example 208, N-[[6-(phenylcarbamoyl)-6-azaspiro[2.5]octan-2-yl]methyl]-1,3-dihydropyrrolo[3,4-c]pyridine-2-carboxamide], the IC50 was found to be 26.1 nM.

On to `Cc1cc(C(=O)N2CCC3(CC2)CC3CNC(=O)c2cc3ccncc3o2)n[nH]1` (stereo not shown) [Example 108, N-[[6-(5-methyl-1H-pyrazole-3-carbonyl)-6-azaspiro[2.5]octan-2-yl]methyl]furo[2,3-c]pyridine-2-carboxamide], for which the IC50 was found to be 449 nM.

Consider `COCCC(=O)N1CCC2(CC1)CC2CNC(=O)c1cc2ccncc2o1` (stereo not shown) [Example 153, N-[[6-(3-methoxypropanoyl)-6-azaspiro[2.5]octan-2-yl]methyl]furo[2,3-c]pyridine-2-carboxamide], for which the IC50 was found to be 2000 nM.

Take `CC(=O)Nc1cccc(C(=O)N2CCC3(CC2)CC3CNC(=O)c2cc3ccncc3o2)c1` (stereo not shown) [Example 264, N-[[6-(3-acetamidobenzoyl)-6-azaspiro[2.5]octan-2-yl]methyl]furo[2,3-c]pyridine-2-carboxamide]: the IC50 came out at 245 nM.

For the compound `Cc1nccn1CC(=O)N1CCC2(CC1)CC2CNC(=O)c1cc2ccncc2o1` (stereo not shown) [Example 180, N-[[6-[2-(2-methylimidazol-1-yl)acetyl]-6-azaspiro[2.5]octan-2-yl]methyl]furo[2,3-c]pyridine-2-carboxamide], the IC50 was found to be 2460 nM.

As for `N#Cc1cccc(CC(=O)N2CCC3(CC2)CC3CNC(=O)c2cc3ccncc3o2)c1` (stereo not shown) [Example 31, N-[[6-[2-(3-cyanophenyl)acetyl]-6-azaspiro[2.5]octan-2-yl]methyl]furo[2,3-c]pyridine-2-carboxamide], the IC50 was determined as 12.1 nM.

Turning to `O=C(NCC1CC12CCN(C(=O)C1CCOC1)CC2)c1cc2ccncc2o1` (stereo not shown) [Example 59, N-[[6-(tetrahydrofuran-3-carbonyl)-6-azaspiro[2.5]octan-2-yl]methyl]furo[2,3-c]pyridine-2-carboxamide], the IC50 was 2000 nM.

`Cc1ncccc1C(=O)N1CCC2(CC1)CC2CNC(=O)c1cc2ccncc2o1` (stereo not shown) [Example 119, N-[[6-(2-methylpyridine-3-carbonyl)-6-azaspiro[2.5]octan-2-yl]methyl]furo[2,3-c]pyridine-2-carboxamide]: the IC50 amounted to 446 nM.

With `CC(C)(C)OC(=O)N1CCC2(CC1)CC2CNC(=O)NCc1ccc2nccn2c1` (stereo not shown) [Example 392, tert-butyl 2-[(imidazo[1,2-a]pyridin-6-ylmethylcarbamoylamino)methyl]-6-azaspiro[2.5]octane-6-carboxylate], the IC50 is 2000 nM.

As to `CC(=O)Nc1cccc(C(=O)N2CCC3(CC2)CC3CNC(=O)c2cc3ccncc3o2)n1` (stereo not shown) [Example 135, N-[[6-(6-acetamidopyridine-2-carbonyl)-6-azaspiro[2.5]octan-2-yl]methyl]furo[2,3-c]pyridine-2-carboxamide], the IC50 turned out to be 36.4 nM.

Still in this test, the particulars now being: Homo sapiens, A2780, 72 h, read-out: Cell Proliferation (IC50).
Regarding `CC1(OC(=O)N2CCC3(CC2)CC3CNC(=O)N2Cc3ccncc3C2)CCC1` (stereo not shown) [Example 228, (1-methylcyclobutyl) 2-[(1,3-dihydropyrrolo[3,4-c]pyridine-2-carbonylamino)methyl]-6-azaspiro[2.5]octane-6-carboxylate], the IC50 was found to be 4.74 nM.
